Holding throughout (assay type): cell-based
A short description of series [1]: Cellular toxicity assay in CEM cells. The note with it: human, CEM (human lymphoblastoid) cells, read-out: Cytotoxicity (IC50 μM) CEM. Here is the method: (§1) The toxicity of the compounds was assessed in Vero, human PBM, CEM (human lymphoblastoid), MT-2, and HepG2 cells, as described previously (see Schinazi R. F., Sommadossi J.-P., Saalmann V., Cannon D. L., Xie M.-Y., Hart G. C., Smith G. A. & Hahn E. F. Antimicrob. Agents Chemother. 1990, 34, 1061-67). Cycloheximide was included as positive cytotoxic control, and untreated cells exposed to solvent were included as negative controls. The cytotoxicity IC50 was obtained from the concentration-response curve using the median effective method described previously (see Chou T.-C. & Talalay P. Adv. Enzyme Regul. 1984, 22, 27-55; Belen'kii M. S. & Schinazi R. F. Antiviral Res. 1994, 25, 1-11).

A short description of series [2]: Cellular toxicity assay in human PBM cells. The conditions noted are these: read-out: Cytotoxicity (IC50 μM) PBM. Here is the method: as §1
The subject of series [3] is HCV Replicon RNA (HCV 1b) in Huh 7 Clone B cells. Description: HCV Replicon Assay. The conditions noted are these: Hepatitis C virus, 120 h, five days incubation. How it is done:
Huh 7 Clone B cells containing HCV Replicon RNA would be seeded in a 96-well plate at 5000 cells/well, and the compounds tested at 10 μM in triplicate immediately after seeding. Following five days incubation (37° C., 5% CO2), total cellular RNA was isolated by using versaGene RNA purification kit from Gentra. Replicon RNA and an internal control (TaqMan rRNA control reagents, Applied Biosystems) were amplified in a single step multiplex Real Time RT-PCR Assay. The antiviral effectiveness of the compounds was calculated by subtracting the threshold RT-PCR cycle of the test compound from the threshold RT-PCR cycle of the no-drug control (ΔCt HCV). A ΔCt of 3.3 equals a 1-log reduction (equal to 90% less starting material) in Replicon RNA levels. The cytotoxicity of the compounds was also calculated by using the ΔCt rRNA values. 2′-C-Me-C was used as the positive control. To determine EC90 and IC50 values^2, ΔCt: values were first converted into fraction of starting material^3 and then were used to calculate the % inhibition.
• 1. Stuyver L et al., Ribonucleoside analogue that blocks replication or bovine viral diarrhea and hepatitis C viruses in culture. Antimicrob. Agents Chemother. 2003, 47, 244-254. • 2. Reed I J & Muench H, A simple method or estimating fifty percent endpoints. Am. J. Hyg. 27: 497, 1938. • 3. Applied Biosystems Handbook Median Effective concentrations (EC50) ranges against HCV 1b are as follow: A=[…] B=100-999 nM C=1-99 nM D=<1 nM
On the technique in general: Replicon systems follow genome replication, usually without infectious particles.

Series [4] is described as follows: Cellular toxicity assay in Vero cells. The note with it: African green monkey, read-out: Cytotoxicity (IC50 μM) Vero. Here is the method:
as §1

9 compounds from patent US9926295B2, “Potent and selective inhibitors of hepatitis C virus” (Cocrystal Pharma, Inc., priority 2014, dated 2018) can be followed below.

Bounds are passed on as bounds.

For `COC(=O)N[C@H](C(=O)N1CCCC1c1ncc(-c2ccc(-c3ccc(-c4[nH]c([C@@H]5C[C@H]([S+](C)[O-])CN5C(=O)[C@@H](NC(=O)OC)C(C)C)nc4Cl)cc3)cc2)[nH]1)C(C)C` (stereo partly drawn) [Compound 46], the values for the IC50 in series [1], in series [2] and in series [4] were 3.7 µM, 13.6 µM and 45.8 µM, respectively. Further, it took 0.06 nM to reach a half-maximal effect in series [3] (values in nM) (EC50). For the same compound, the 90% effect level in series [3] (values in nM) (EC90) was put at 0.3 nM.

On to `COC(=O)N[C@H](C(=O)N1CCCC1c1nc(Cl)c(-c2ccc(-c3ccc(-c4[nH]c([C@@H]5C[C@H](SC)CN5C(=O)[C@@H](NC(=O)OC)C(C)C)nc4Cl)cc3)cc2)[nH]1)C(C)C` (stereo partly drawn) [Compound 49], for which the values for the concentration for half-maximal inhibition (IC50) in series [1], in series [2] and in series [4] were 2.5 µM, 24.3 µM and greater than 100 µM, respectively. In addition, in series [3] (pM), the concentration for a half-maximal effect (EC50) (commonly the concentration that produces a half-maximal response) was 0.0034 nM. Also, the EC90 (in general, the point of the concentration-response curve where the effect stands at 90%) in series [3] (pM) is 0.0699 nM.

In the case of `COC(=O)N[C@H](C(=O)N1CCCC1c1nc(Cl)c(-c2ccc(-c3ccc(-c4[nH]c([C@@H]5C[C@H](SC)CN5C(=O)[C@@H](NC(=O)OC)c5ccccc5)nc4Cl)cc3)cc2)[nH]1)c1ccccc1` (stereo partly drawn) [Compound 51], the IC50 in series [1], in series [2] and in series [4] was greater than 100 µM throughout. Moreover, the EC50 in series [3] (pM) is 0.0077 nM. The compound also displayed an EC90 in series [3] (pM) of 0.0191 nM.

Turning to `COC(=O)N[C@H](C(=O)N1CCCC1c1nc(Cl)c(-c2ccc(-c3ccc(-c4cnc([C@@H]5C[C@H](SC)CN5C(=O)[C@@H](NC(=O)OC)C(C)C)[nH]4)cc3)cc2)[nH]1)C(C)C` (stereo partly drawn) [Compound 42], the IC50 (usually the midpoint of a concentration-inhibition curve) in series [1] came to 3.1 µM; in series [2], 60 µM; in series [4], 34.5 µM. Further, the 50% effective concentration (EC50) in series [3] (pM) stood at 0.0139 nM. In series [3] (pM), it took 0.0263 nM to reach the 90% level (EC90).

On to `COC(=O)N[C@H](C(=O)N1CCCC1c1ncc(-c2ccc(-c3ccc(-c4[nH]c([C@@H]5C[C@H](SC)CN5C(=O)[C@@H](NC(=O)OC)c5ccccc5)nc4Cl)cc3)cc2)[nH]1)c1ccccc1` (stereo partly drawn) [Compound 47], for which the IC50 in series [1], in series [2] and in series [4] was greater than 100 µM each time. This compound also had an EC50 in series [3] (pM) of 0.004 nM. For the same compound, it took 0.0231 nM to reach the 90% level in series [3] (pM) (EC90).

As for `COC(=O)N[C@H](C(=O)N1CCCC1c1ncc(-c2ccc(-c3ccc(-c4[nH]c([C@@H]5C[C@H]([S+](C)[O-])CN5C(=O)[C@@H](NC(=O)OC)c5ccccc5)nc4Cl)cc3)cc2)[nH]1)c1ccccc1` (stereo partly drawn) [Compound 48], the IC50 in series [1] was 1.8 µM; in series [2], 67.6 µM; in series [4], greater than 100 µM. For the same compound, the EC50 in series [3] (values in nM) is 0.07 nM. Besides, in series [3] (values in nM), it took 0.5 nM to reach the 90% level (EC90).

For the compound `COC(=O)N[C@H](C(=O)N1CCCC1c1nc(Cl)c(-c2ccc(-c3ccc(-c4cnc([C@@H]5C[C@H]([S+](C)[O-])CN5C(=O)[C@@H](NC(=O)OC)c5ccccc5)[nH]4)cc3)cc2)[nH]1)c1ccccc1` (stereo partly drawn) [Compound 44], the half-inhibitory concentration (IC50) in series [1] was 3.6 µM; in series [2], 89.7 µM; in series [4], greater than 100 µM. For the same compound, in series [3] (values in nM), the EC50 amounted to 0.2 nM. In series [3] (values in nM), this compound displayed a concentration for an effect of 90% (EC90) of 1.1 nM.

In the case of `COC(=O)N[C@H](C(=O)N1CCCC1c1nc(Cl)c(-c2ccc(-c3ccc(-c4[nH]c([C@@H]5C[C@H]([S+](C)[O-])CN5C(=O)[C@@H](NC(=O)OC)c5ccccc5)nc4Cl)cc3)cc2)[nH]1)c1ccccc1` (stereo partly drawn) [Compound 52], the values for the IC50 in series [1], in series [2] and in series [4] were 7.1 µM, 83.9 µM and greater than 100 µM, respectively. Besides, in series [3] (values in nM), the EC50 came to 0.06 nM. The compound also came in with an EC90 in series [3] (values in nM) of 0.2 nM.

`COC(=O)N[C@H](C(=O)N1CCCC1c1ncc(-c2ccc(-c3ccc(-c4[nH]c([C@@H]5C[C@H](SC)CN5C(=O)[C@@H](NC(=O)OC)C(C)C)nc4Cl)cc3)cc2)[nH]1)C(C)C` (stereo partly drawn) [Compound 45]: the 50% inhibitory concentration (IC50) in series [1] turned out to be 5.2 µM; in series [2], 27.2 µM; in series [4] it was 14.4 µM. In series [3] (pM), the concentration giving a half-maximal response (EC50) is 0.0163 nM. It took 0.0316 nM to reach the 90% level in series [3] (pM) (EC90).
